Entries after “also recorded” stand apart in the source; their conditions may differ. Where a SMILES comes first, the peptide text is derived from it. Bridges are numbered along the chain shown (N, C = ends). Triazole bridges read from a SMILES are 1,4-linked. [ ]: non-standard residue; d: D form. The star is where a group is joined. Biotin = O=C1N[C@H]2[C@H](CS[C@H]2CCCCC(=O)*)N1; Lys(N3) = [N-]=[N+]=NCCCC[C@H](N)C(=O)O; PEG5 = NCCOCCOCCOCCOCCOCCC(=O)O; Pra = C#CC[C@H](N)C(=O)O
Legend:
[1] = system: K. pneumoniae cells (strain BAA 1705); assay: Gentamicin protection assay: phagocytosis and opsonophagocytic killing (OPK) by macrophages; format: cell-based, Klebsiella pneumoniae
Procedure, shortened: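 Strain BAA 1705 treated with DNP-conjugated EPIs (5 μM), opsonized with anti-DNP antibody, then given to murine bone-marrow macrophages at MOI 50 for 0.5 h at 37° C. Extracellular bacteria killed with gentamicin (100 μg/ml). Macrophages lysed at 1 h (phagocytosis) and 24 h (OPK); intracellular CFU counted on LB agar, in triplicate.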

[2] = system: Salmonella typhimurium (S. typhimurium) cells; assay: Whole-cell ELISA of biotinylated PCC binding; details: biotinylated PCC at 5 μM
Procedure: Whole-cell ELISAs. Detection of the binding of biotinylated PCCs to bacterial surface was performed as follows. 108 bacteria from a culture grown overnight were used for each test. Bacteria were incubated with PBS containing 1% BSA (PBS-BSA) for 1 h at 37° C., washed once with PBS, and then incubated with 5 μM of the biotinylated PCC in PBS-BSA for 1 h at 37° C. After washing thrice with PBS to remove unbound PCCs, bacteria were incubated with Streptavidin-HRP (1:1000) for 1 h at 37° C. Bacteria were washed thoroughly and the TMB reagent was added until visible coloration was observed. The reaction was quenched using 2N H2SO4 and absorbance was measured at 450 nm.

## CC(C)C[C@@H]1NC(=O)[C@@H](NC(=O)CCOCCOCCOCCOCCOCCNC(=O)CCCC[C@@H]2SC[C@@H]3NC(=O)N[C@@H]32)Cc2cn(nn2)CCCC[C@@H](C(N)=O)NC(=O)[C@H](Cc2ccccc2)NC(=O)[C@H](Cc2ccccc2)NC(=O)[C@H](Cc2ccccc2)NC(=O)[C@H](CC(C)C)NC1=O [cy(LLFFF)] ({Biotin-PEG5}-[Pra]LLFFF[Lys(N3)]-NH2; triazole 1-7; N-terminus and C-terminus assumed)
[1]; macrophages harvested at 6 hrs
  CFU at 6 hrs, DNP-conjugated EPI and anti-DNP antibody: more than 80,000 CFU
  cell counts at 6 hrs, DNP-conjugated EPI without antibody: ~35,000
[1]; macrophages harvested at 24 h
  colony counts at 24 h (OPK): little to no cell counts
[2]
  whole-cell ELISA signal, S. typhimurium: small absorbances; also recorded: only weak signals
